# Data reported in patent publication US6350742B1, “Compositions and methods for treating infections of the ear” (Carter-Wallace, Inc., priority 1998, dated 2002).
# Assays:
# [1] = solubility in aqueous solutions and organic solvents; format: physicochemical
# [2] = pH of a saturated solution in deionized water; format: physicochemical
# [3] = apparent partition coefficient between octanol and water; format: physicochemical; conditions: water buffered at pH 7.2
# [4] = stability in the solid state; format: physicochemical; conditions: stored at ambient conditions
# [5] = stability in aqueous solution; format: physicochemical; conditions: pre-packed and stored
# [6] = tested on: antibiotic resistant strains of H.pylori, staphylococci, streptococci, enterococci; assay: activity against antibiotic resistant bacteria; conditions: enterococci and other bacterial and nosocomial infections
# [7] = tested on: microbiota indigenous to the human ear; assay: activity against microbiota of the ear
# [8] = cited from earlier work
# mice = conditions: cited from earlier work
smiles,measurement,setting,value
"O=S1(=O)CCN(CN2CCS(=O)(=O)NC2)CN1 [Taurolidine, 4,4′-methylenebis (tetrahydro-1,2,4-thiadiazine)-1,1,1′,1′ tetraoxide]",solubility,[1]; CHCl3,insoluble
same,solubility,[1]; Dilute HCl,soluble
same,solubility,[1]; Dilute NaOH,soluble
same,solubility,[1]; EtOH,sparingly soluble
same,solubility,"[1]; Water, 20° C.",1% at 20 °C
same,pH of saturated solution,[2],7.4
same,apparent partition coefficient between octanol and water,[3],approximately 0.13
same,stability in the solid state,[4],acceptable stability in the solid state
same,stability in aqueous solution,[5],stored over relatively long periods
same,effect on antibiotic resistant strains,[6],destroys antibiotic resistant strains
same,effect on growth of microbiota indigenous to the human ear,[7],eradicates or controls the growth
same,cumulative dose shown to be safe and well tolerated,[8]; cumulative doses,exceeding 300 g
same,systemic dose shown to be safe and well tolerated,[8]; systemic doses,exceeding 40 g/day
same,teratogenicity,mice,non-teratogenic
